The test system of this assay is Human prostate cancer cell lines (PC-3 cells). In words: Measurement of cell death-inducing activity (Test Example 1). Type of assay: cell-based. The note with it: PC-3, 48 h, 48 hours after addition, tested at 10, 1, 0.1, 0.025 and 0.00625 μmol/L, qualitative evaluation of 10 fields, read-out: Concentration showing the cell death-inducing activity (cell death-inducing rate not less than 40%). An outline of the steps:
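Compound treatment lasted 48 h at 10 to 0.00625 μmol/L (five levels, DMSO as control) on PC-3 cells pre-cultured 48 h at 37 °C, 5% CO2 after seeding at 1×10^5 cells/well. A cell death-inducing rate of 40% or more counted as active.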

Turning to `CCc1nc(-c2ccc(Cl)cc2)sc1C(=O)N/N=C/c1ccc(OC)c(O)c1` [Example 23-100], the minimal effective concentration worked out at 1 µM.
Consider `CCc1ccccc1-c1nc(C)c(NC(=O)OCc2ccc3c(cnn3CC)c2)s1` [Example 9-133], for which the minimal effective concentration was 0.1 µM.
For `Cc1cc(Cl)ccc1-c1nc(C)c(NC(=O)OCc2ccc3c(c2)nnn3C)s1` [Example 9-20], the minimal effective concentration amounted to 0.025 µM.
The result for `COc1ccccc1-c1nc(C)c(NC(=O)OCc2ccc3c(cnn3C)c2)s1` [Example 9-126] reads 0.1 µM.
The result for `CCCOc1ccccc1-c1nc(C)c(C(=O)N/N=C/c2cc(C)c(O)c(C)c2)s1` [Example 23-55] reads 1 µM.
Take `CCn1cnc2cc(NC(=O)OCc3cc(-c4ccc(Cl)cc4OC)nn3C)ccc21` [Example 13-86]: the minimal effective concentration was 0.00625 µM.
On to `CCc1nc(-c2ccc(C)cc2C)sc1NC(=O)OCc1ccc2nn(CC)cc2c1` [Example 9-371], for which the minimal effective concentration turned out to be 1 µM.
The result for `CCCc1nc(-c2ccc(Cl)cc2OC)sc1COC(=O)Nc1ccc2c(c1)ncn2C` [Example 13-68] reads 1 µM; that for `Cc1cc(/C=N/NC(=O)c2cc(-c3ccc(Cl)cc3)n[nH]2)cc(C)c1O` [Example 21-21], 1 µM.
With `Cc1cc(/C=N/NC(=O)c2oc(-c3ccc(Cl)cc3)nc2C)cc(C)c1O` [Example 26-1, 2-(4-Chlorophenyl)-4-methyloxazole-5-carboxylic acid[N′-(4-hydroxy-3,5-dimethylphenyl)methylidene]hydrazide] the figure was 10 µM; with `Cc1cc(F)ccc1-c1cc(NC(=O)OCc2ccc3c(c2)nc2n3CCOC2)n(C)n1` [Example 9-253], 0.1 µM.
With `COc1ccc(/C=N/NC(=O)c2sc(-c3ccc(Cl)cc3Cl)nc2C)cc1O` [Example 23-1, 2-(2,4-Dichlorophenyl)-4-methylthiazole-5-carboxylic acid[1-(3-hydroxy-4-methoxyphenyl)methylidene]hydrazide] the figure was 10 µM; with `CCn1nc(-c2ccc(Cl)c(Cl)c2)cc1NC(=O)OCc1ccc2c(c1)ncn2C` [Example 9-211], 10 µM; with `Cc1ccc(-c2nc(C)c(COC(=O)Nc3ccc4c(c3)nc3n4CCOC3)s2)c(C)c1` [Example 13-24], 0.025 µM.
`CCn1ncc2cc(COC(=O)Nc3csnc3-c3ccc(Cl)cc3OC)ccc21` [Example 45-7]: the minimal effective concentration amounted to 0.1 µM.
Regarding `Cc1cc(Cl)ccc1-c1nc(C)c(COC(=O)Nc2ccc3nn(C)cc3c2)s1` [Example 13-50], the minimal effective concentration turned out to be 0.025 µM.
With `CCn1nc(-c2ccc(C)cc2OC)cc1NC(=O)OCc1ccc2c(c1)ncn2CC` [Example 9-229] the figure was 0.025 µM.
As for `CCn1cc2cc(COC(=O)Nc3sc(-c4ccc(OC)cc4OC)nc3C)ccc2n1` [Example 9-156], the minimal effective concentration turned out to be 0.1 µM.
The result for `CCn1cnc2cc(COC(=O)Nc3cc(-c4ccccc4OC)nn3C)ccc21` [Example 9-215] reads 0.1 µM.
With `CCc1ccccc1-c1nc(C)c(NC(=O)OCc2ccc3nn(CC)cc3c2)s1` [Example 9-151] the figure was 1 µM.
With `Cc1nc(-c2sccc2Cl)sc1COC(=O)Nc1ccc2c(c1)nc1n2CCOC1` [Example 13-61] the figure was 10 µM; with `CCn1cc2cc(NC(=O)OCc3sc(-c4ccc(F)cc4Cl)nc3C)ccc2n1` [Example 13-56], 0.1 µM.
As for `COc1ccc(-c2cc(NC(=O)OCc3ccc4nn(C)cc4c3)n(C)n2)c(OC)c1` [Example 9-294], the minimal effective concentration amounted to 1 µM.
Regarding `Cc1cc(/C=N/NC(=O)c2cc(-c3ccc(Cl)cc3Cl)n[nH]2)cc(C)c1O` [Example 21-11], the minimal effective concentration was 1 µM.
In the case of `Cc1nc(-c2ccc3c(c2)CCO3)sc1NC(=O)OCc1ccc2c(c1)ncn2C` [Example 9-50], the minimal effective concentration amounted to 10 µM.
Regarding `CCc1nc(-c2ccc(F)cc2C)sc1NC(=O)OCc1ccc2c(c1)ncn2CC` [Example 9-167], the minimal effective concentration worked out at 0.025 µM.
With `CCn1cnc2cc(NC(=O)OCc3sc(-c4ccc(Cl)cc4C)nc3C)ccc21` [Example 13-17], the minimal effective concentration turned out to be 0.025 µM.
With `CCn1nc(-c2ccc(Cl)cc2OC)cc1COC(=O)Nc1ccc2c(c1)ncn2CC` [Example 13-87] the figure was 0.025 µM.
The result for `CCn1nc(-c2ccc(C)cc2C)cc1NC(=O)OCc1ccc2c(c1)nc(C)n2C` [Example 9-240] reads 1 µM; that for `COc1cc(C)ccc1-c1nc(C)c(NC(=O)OCc2ccc3c(c2)nc2n3CCC2)s1` [Example 9-104], 0.1 µM.
As to `COc1ccc(/C=N/NC(=O)c2sc(-c3ccc(Cl)cc3)nc2C(F)(F)F)cc1O` [Example 23-18], the minimal effective concentration turned out to be 10 µM.
With `COc1ccccc1-c1cc(C(=O)N/N=C/c2ccc3c(c2)nc2n3CCOC2)sn1` [Example 49-4, 3-(2-Methoxyphenyl)isothiazole-5-carboxylic acid[1-(3,4-dihydro-1H-2-oxa-4a,9-diazafluoren-7-yl)methylidene]hydrazide] the figure was 10 µM; with `COc1cc(Cl)ccc1-c1nc(C)c(NC(=O)OCc2ccc3c(c2)nc2n3CC(O)C2)s1` (centres unmarked) [Example 9-340], 0.025 µM.
The result for `CCc1nc(-c2ccc(F)cc2OC)sc1NC(=O)OCc1ccc2c(c1)ncn2CC` [Example 9-346] reads 0.025 µM.
The result for `CCn1nc(-c2ccc(F)cc2OC)cc1COC(=O)Nc1ccc2c(cnn2C)c1` [Example 13-126] reads 10 µM.
In the case of `CCn1cnc2cc(COC(=O)Nc3sc(-c4ccc(C)cc4OC)nc3C)ccc21` [Example 9-60], the minimal effective concentration is 0.00625 µM.
The result for `Cc1ccccc1-c1nc(C)c(NC(=O)OCc2ccc3c(c2)nnn3C)s1` [Example 9-12] reads 1 µM; that for `COc1ccc(/C=N/NC(=O)c2sc(-c3ccccc3Cl)nc2C)c(Cl)c1O` [Example 23-4], 0.1 µM.
The result for `Cc1nc(-c2ccc(F)cc2Cl)sc1NC(=O)OCc1ccc2c(c1)nc(C)n2C` [Example 9-79] reads 0.1 µM; that for `COc1ccccc1-c1cc(NC(=O)OCc2ccc3nn(C)cc3c2)n(C)n1` [Example 9-288], 1 µM.
`Cn1cnc2cc(COC(=O)Nc3nnc(-c4ccc(Cl)cc4Cl)s3)ccc21` [Example 9-335]: the minimal effective concentration came out at 10 µM.
The result for `COc1ccc(/C=N/NC(=O)c2sc(-c3ncccc3Cl)nc2C)cc1O` [Example 23-139] reads 1 µM; that for `Cc1ccc(-c2nc(C)c(COC(=O)Nc3ccc4c(c3)ncn4C)s2)c(C)c1` [Example 13-8], 0.025 µM.
With `CCN(Cc1ccc(OC)cc1)NC(=O)c1cc(-c2ccc(Cl)cc2OC)ns1` [Example 19-2, 3-(4-Chloro-2-methoxyphenyl)isothiazole-5-carboxylic acid N′-(4-methoxybenzyl)-N′-ethyl hydrazide] the figure was 10 µM; with `CCc1nc(-c2ccccc2OC)sc1NC(=O)OCc1ccc2c(c1)nc1n2CCC1` [Example 9-347], 1 µM.
For the compound `CCc1nc(-c2ccc(C)cc2OC)sc1NC(=O)OCc1ccc2c(c1)ncn2C` [Example 9-344], the minimal effective concentration is 0.00625 µM.
For the compound `Cc1cc(F)ccc1-c1nc(C)c(NC(=O)OCc2ccc3c(c2)nc(C)n3C)s1` [Example 9-80], the minimal effective concentration came to 0.1 µM.
As to `CCc1nc2cc(COC(=O)Nc3cc(-c4ccc(Cl)cc4OC)nn3C)ccc2n1C` [Example 9-242], the minimal effective concentration came out at 0.1 µM.
In the case of `CCOc1ccc(CN(C)NC(=O)c2sc(-c3ccc(Cl)cc3OC)nc2C)cc1` [Example 16-19], the minimal effective concentration stood at 0.1 µM.
The result for `Cc1nc(-c2ccc(F)cc2Cl)sc1NC(=O)OCc1ccc2c(cnn2C)c1` [Example 9-131] reads 0.1 µM.
The result for `Cc1ccc(-c2nc(C)c(COC(=O)Nc3ccc4nn(C)cc4c3)s2)c(C)c1` [Example 13-48] reads 0.1 µM; that for `Cc1nc(C)c(C(=O)N/N=C/c2cc(C)c(O)c(C)c2)s1` [Example 23-133], 10 µM.
Turning to `CCn1nc(-c2ccc(Cl)cc2Cl)cc1NC(=O)OCc1ccc2c(cnn2C)c1` [Example 9-276], the minimal effective concentration is 1 µM.
With `Cc1ccccc1-c1ncc(C(=O)N/N=C/c2cc(C)c(O)c(C)c2)[nH]1` [Example 25-2, 2-(2-Methylphenyl)-3H-imidazole-4-carboxylic acid[1-(4-hydroxy-3,5-dimethylphenyl)methylidene]hydrazide] the figure was 10 µM; with `Cc1cc(F)ccc1-c1nc(C)c(NC(=O)OCc2ccc3c(c2)ncn3C)s1` [Example 9-48], 0.00625 µM.
The result for `Cn1nc2c(c1NC(=O)OCc1ccc3c(cnn3C)c1)COc1ccccc1-2` [Example 9-324] reads 10 µM; that for `Cc1ccc(-c2cc(COC(=O)Nc3ccc4c(c3)nc3n4CCOC3)n(C)n2)c(C)c1` [Example 13-103], 0.00625 µM; that for `COc1ccc(CN(C)NC(=O)c2sc(-c3ccc(Cl)cc3Cl)nc2C)cc1` [Example 16-10], 1 µM.
On to `COc1ccc(CN(C)NC(=O)c2sc(-c3ccc(F)cc3F)nc2C)cc1F` [Example 16-21], for which the minimal effective concentration was found to be 1 µM.
With `COc1cc(F)ccc1-c1nc(C)c(NC(=O)OCc2ccc3c(c2)ncn3C)s1` [Example 9-38] the figure was 0.00625 µM.
For `COc1ccc(/C=N/NC(=O)c2sc(-c3ccccc3Cl)nc2C)cc1O` [Example 23-2], the minimal effective concentration is 0.1 µM.
The result for `COc1cc(Cl)ccc1-c1cc(COC(=O)Nc2ccc3c(c2)ncn3C)nn1C` [Example 13-137] reads 10 µM.

(Values after US9200008B2 (ASKA PHARMACEUTICAL CO., LTD., priority 2010, dated 2015).)
